Patent US6258790A, “Antisense modulation of integrin α4 expression” (Isis Pharmaceuticals, Inc., priority 1999, dated 2001)

Columns and labels:
[1] = system: Jurkat T-cell adherence to HUVEC; assay: Adherence of Jurkat T-cells to HUVEC (flow cytometry); assay type: cell-based, human
Description: A similar adherence assay was performed using Jurkat T-cells instead of melanoma cells, again detecting adherence to HUVEC. Because Jurkat cells are smaller and less complex, they can be separated from HUVEC by gating on the basis of differences in forward light scatter and side scatter. For 5000 HUVEC events, adherent Jurkat cells were quantitated. At oligonucleotide concentrations of 1, 3, 10, and 30 μM ISIS 107248, adherence of Jurkat cells to HUVEC was 0, 12%, 32% and 63%, respectively.

integrin α4 = assay: Inhibition of integrin α4 protein expression in Jurkat T-lymphocyte cells; assay type: cell-based, human
Description: ISIS 107248 was tested at doses of 1, 3, 10, 20 and 30 μM for ability to inhibit integrin α4 expression in Jurkat T-lymphocyte cells according to the previous examples. Integrin α4 protein expression was reduced by approximately 65-72% at oligonucleotide doses of 3-30 μM at 24 hours after oligonucleotide treatment. At 48 hours after treatment, integrin α4 protein expression was reduced by 60% at 3 μM and by 90% at 10, 20 and 30 μM oligonucleotide concentration.

human integrin α4 = assay: Integrin α4 protein expression in A375 cells after electroporation of oligonucleotide (flow cytometry); assay type: cell-based
Description: A375 cells were treated with ISIS 107245, 107248, 107252, 107255 and 107259 by electroporation at 175 volts, r=1, c=1000, 0.2 ml Opti-MEM, 1×10^6 cells /ml, 2 mm gap electrode using a BTX Electro Cell Manipulator 600 (Genetronics, San Diego Calif.). Oligonucleotide concentrations were 1, 3, 10 and 30 μM. Cells were harvested 24 hours after oligonucleotide treatment and strained with 2 ug/ml CD49d-FITC for flow cytometry as in the previous examples.
ISIS 107248 was compared directly to ISIS 27104 for ability to inhibit integrin α4 expression in A375 melanoma cells. Oligonucleotides were electroporated into cells as in the previous example.

human integrin α4 mRNA = assay: Integrin α4 mRNA levels in A375 melanoma cells by real-time quantitative PCR; assay type: cell-based; conditions: 24 hours, electroporation
Description: Quantitation of integrin α4 mRNA levels was performed by real-time quantitative PCR using the ABI PRISM™ 7700 Sequence Detection System (PE-Applied Biosystems, Foster City, Calif.) according to manufacturer's instructions. This is a closed-tube, non-gel-based, fluorescence detection system which allows high-throughput quantitation of polymerase chain reaction (PCR) products in real-time. As opposed to standard PCR, in which amplification products are quantitated after the PCR is completed, products in real-time quantitative PCR are quantitated as they accumulate. This is accomplished by including in the PCR reaction an oligonucleotide probe that anneals specifically between the forward and reverse PCR primers, and contains two fluorescent dyes. A reporter dye (e.g., JOE or FAM, obtained from either Operon Technologies Inc., Alameda, Calif. or PE-Applied Biosystems, Foster City, Calif.) is attached to the 5' end of the probe and a quencher dye (e.g., TAMRA, obtained from either Operon Technologies Inc., Alameda, Calif. or PE-Applied Biosystems, Foster City, Calif.) is attached to the 3' end of the probe. When the probe and dyes are intact, reporter dye emission is quenched by the proximity of the 3' quencher dye. During amplification, annealing of the probe to the target sequence creates a substrate that can be cleaved by the 5'-exonuclease activity of Taq polymerase. […] With each cycle, additional reporter dye molecules are cleaved from their respective probes, and the fluorescence intensity is monitored at regular intervals by laser optics built into the ABI PRISM™ 7700 Sequence Detection System. In each assay, a series of parallel reactions containing serial dilutions of mRNA from untreated control samples generates a standard curve that is used to quantitate the percent inhibition after antisense oligonucleotide treatment of test samples.
PCR reagents were obtained from PE-Applied Biosystems, Foster City, Calif. RT-PCR reactions were carried out by adding 20 μL PCR cocktail (1×TAQMANT buffer A, 5.5 mM MgCl2, 300 μM each of dATP, dCTP and dGTP, 600 μM of dUTP, 400 nM each of forward primer and reverse primer (or 100 nM in the case of G3PDH), 100 nM probe, 20 Units RNAse inhibitor, 1.25 Units AMPLITAQ GOLD™, and 12.5 Units MuLV reverse transcriptase) to 5 μL (100 ng) total mRNA solution, purified using the RNEasy™ kit (Qiagen, Valencia Calif.). The RT reaction was carried out by incubation for 30 minutes at 48° C. Following a 10 minute incubation at 95° C. to activate the AMPLITAQ GOLD™, 40 cycles of a two-step PCR protocol were carried out: 95° C. for 15 seconds (denaturation) followed by 60° C. for 1.5 minutes (annealing/extension). Integrin α4 probes and primers were designed to hybridize to the human integrin α4 sequence, using published sequence information (GenBank accession number L12002), incorporated herein as SEQ ID NO:1).
For integrin α4 the PCR primers were: forward primer: GACACGCTGCGCCTCAT (SEQ ID NO: 94, hybridizes at position 319-335 of Genbank accession no. L12002) reverse primer: […] (SEQ ID NO: 95, hybridizes at position 391-412 of Genbank accession no. L12002) and the PCR probe was: FAM-[…]-TAMRA (probe is SEQ ID NO: 96; hybridizes at position 361-382 of Genbank accession no. L12002) where FAM (PE-Applied Biosystems, Foster City, Calif.) is the fluorescent reporter dye) and TAMRA (PE-Applied Biosystems, Foster City, Calif.) is the quencher dye. […]

Substance: 107248 (antisense CTGAGTCTGTTTTCCATTCT; chemistry not given here) [compound 107248]
- adherence of Jurkat cells to HUVEC ([1]; 1 μM): 0%
- adherence of Jurkat cells to HUVEC ([1]; 3 μM): 12%
- adherence of Jurkat cells to HUVEC ([1]; 10 μM): 32%
- adherence of Jurkat cells to HUVEC ([1]; 30 μM): 63%
- reduction of integrin α4 protein expression (integrin α4; 3 μM, 48 hours): 60%
- reduction of integrin α4 protein expression (integrin α4; 10 μM, 48 hours): 90%
- reduction of integrin α4 protein expression (integrin α4; 20 μM, 48 hours): 90%
- reduction of integrin α4 protein expression (integrin α4; 30 μM, 48 hours): 90%
- reduction of integrin α4 protein expression (integrin α4; 3-30 μM, 24 hours): 65-72%
- % Control (human integrin α4; Table 25, 1 nM as printed, 24 hours): 9.1%
- % Control (human integrin α4; Table 25, 10 nM, 24 hours): 23.2%
- % Control (human integrin α4; Table 25, 30 nM, 24 hours): 52.1%
- % Control (human integrin α4; Table 26, 1 μM): 52.1%
- % Inhib. (human integrin α4; Table 26, 1 μM): 47.9%
- % Control (human integrin α4; Table 26, 3 μM): 17.4%
- % Inhib. (human integrin α4; Table 26, 3 μM): 82.6%
- % Control (human integrin α4; Table 26, 10 μM): 7.9%
- % Inhib. (human integrin α4; Table 26, 10 μM): 92.1%
- % Control (human integrin α4; Table 26, 30 μM): 2.9%
- % Inhib. (human integrin α4; Table 26, 30 μM): 97.1%
- reduction of integrin α4 mRNA levels compared to control (human integrin α4 mRNA; 0.3 μM): approximately 23%
- reduction of integrin α4 mRNA levels compared to control (human integrin α4 mRNA; 1 μM): ~38%
- reduction of integrin α4 mRNA levels compared to control (human integrin α4 mRNA; 3 μM): ~70%
- reduction of integrin α4 mRNA levels compared to control (human integrin α4 mRNA; 10 μM): ~80%
- reduction of integrin α4 mRNA levels compared to control (human integrin α4 mRNA; 30 μM): ~85%
